Experiment [1] deals with Monographella nivalis (Microdochium nivale). In words: Monographella nivalis (Microdochium nivale) / liquid culture (foot rot cereals). The class given is cell-based. The following applies: growth inhibition photometrically 4 to 5 days after application, read-out: control of Monographella nivalis. Here is the method:
Example B5: Monographella nivalis (Microdochium nivale)/Liquid Culture (Foot Rot Cereals) Conidia of the fungus from cryogenic storage are directly mixed into nutrient broth (PDB potato dextrose broth). After placing a (DMSO) solution of test compound into a microtiter plate (96-well format), the nutrient broth containing the fungal spores is added. The test plates are incubated at 24° C. and the inhibition of growth is determined photometrically 4 to 5 days after application.

The subject of experiment [2] is Mycosphaerella arachidis (Cercospora arachidicola). In words: Mycosphaerella arachidis (Cercospora arachidicola) / liquid culture (early leaf spot). The class given is cell-based. To be noted: growth inhibition photometrically 4 to 5 days after application, read-out: control of Mycosphaerella arachidis. The protocol:
Example B6: Mycosphaerella arachidis (Cercospora arachidicola)/Liquid Culture (Early Leaf Spot) Conidia of the fungus from cryogenic storage are directly mixed into nutrient broth (PDB potato dextrose broth). After placing a (DMSO) solution of test compound into a microtiter plate (96-well format), the nutrient broth containing the fungal spores is added. The test plates are incubated at 24° C. and the inhibition of growth is determined photometrically 4 to 5 days after application.

For another experiment, the system named is Pyrenophora teres. In words: Pyrenophora teres / barley / leaf disc preventative (net blotch). The experiment is classed as in vivo. To be noted: 200 ppm, compared to untreated control. The protocol: Example B9: Pyrenophora teres/Barley/Leaf Disc Preventative (Net Blotch) Barley leaf segments cv. Hasso are placed on agar in a multiwell plate (24-well format) and sprayed with the formulated test compound diluted in water. The leaf segments are inoculated with a spore suspension of the fungus 2 days after application. The inoculated leaf segments are incubated at 20° C. and 65% rh under a light regime of 12 h light/12 h darkness in a climate cabinet and the activity of a compound is assessed as disease control compared to untreated when an appropriate level of disease damage appears in untreated check leaf segments (5 to 7 days after application).

The subject of experiment [3] is Mycosphaerella graminicola (Septoria tritici). In words: Mycosphaerella graminicola (Septoria tritici) / liquid culture (Septoria blotch). The experiment is classed as cell-based. To be noted: Zymoseptoria tritici, growth inhibition photometrically 4 to 5 days after application, read-out: control of Mycosphaerella graminicola. The protocol:
Example B12: Mycosphaerella graminicola (Septoria tritici)/Liquid Culture (Septoria Blotch) Conidia of the fungus from cryogenic storage are directly mixed into nutrient broth (PDB potato dextrose broth). After placing a (DMSO) solution of test compound into a microtiter plate (96-well format), the nutrient broth containing the fungal spores is added. The test plates are incubated at 24° C. and the inhibition of growth is determined photometrically 4 to 5 days after application.

For the next experiment, the system named is Pythium ultimum. In words: Pythium ultimum / liquid culture (seedling damping off). The class given is cell-based. To be noted: 20 ppm, growth inhibition photometrically 2 to 3 days after application. Here is the method:
Example B10: Pythium ultimum/Liquid Culture (Seedling Damping Off) Mycelia fragments and oospores of a newly grown liquid culture of the fungus are directly mixed into nutrient broth (PDB potato dextrose broth). After placing a (DMSO) solution of test compound into a microtiter plate (96-well format), the nutrient broth containing the fungal mycelia/spore mixture is added. The test plates are incubated at 24° C. and the inhibition of growth is determined photometrically 2 to 3 days after application.

Experiment [4] has as its system Thanatephorus cucumeris (Rhizoctonia solani). In words: Thanatephorus cucumeris (Rhizoctonia solani) / liquid culture (foot rot, damping-off). The class given is cell-based. The following applies: 20 ppm, growth inhibition photometrically 3 to 4 days after application. The protocol: Example B11: Thanatephorus cucumeris (Rhizoctonia solani)/Liquid Culture (Foot Rot, Damping-Off) Mycelia fragments of a newly grown liquid culture of the fungus are directly mixed into nutrient broth (PDB potato dextrose broth). After placing a (DMSO) solution of the test compounds into a microtiter plate (96-well format), the nutrient broth containing the fungal material is added. The test plates are incubated at 24° C. and the inhibition of growth is determined photometrically 3 to 4 days after application.

Experiment [5] relates to Phaeosphaeria nodorum (Septoria nodorum). In words: Phaeosphaeria nodorum (Septoria nodorum) / wheat / leaf disc preventative (glume blotch). The class given is in vivo. The following applies: 200 ppm, compared to untreated control. Here is the method:
Example B4: Phaeosphaeria Nodorum (Septoria nodorum)/Wheat/Leaf Disc Preventative (Glume Blotch) Wheat leaf segments cv. Kanzler are placed on agar in a multiwell plate (24-well format) and sprayed with the formulated test compound diluted in water. The leaf disks are inoculated with a spore suspension of the fungus 2 days after application. The inoculated test leaf disks are incubated at 20° C. and 75% rh under a light regime of 12 h light/12 h darkness in a climate cabinet and the activity of a compound is assessed as percent disease control compared to untreated when an appropriate level of disease damage appears in untreated check leaf disks (5 to 7 days after application).

Experiment [6] relates to Puccinia recondita f. sp. tritici. The experiment in a line: Puccinia recondita f. sp. tritici / wheat / leaf disc curative (brown rust). The class given is in vivo. The following applies: 200 ppm, applied 1 day after inoculation. Here is the method:
Example B7: Puccinia recondita f. Sp. Tritici/Wheat/Leaf Disc Curative (Brown Rust) Wheat leaf segments cv. Kanzler are placed on agar in multiwell plates (24-well format). The leaf segments are inoculated with a spore suspension of the fungus. Plates are stored in darkness at 19° C. and 75% rh. The formulated test compound diluted in water is applied 1 day after inoculation. The leaf segments are incubated at 19° C. and 75% rh under a light regime of 12 h light/12 h darkness in a climate cabinet and the activity of a compound is assessed as percent disease control compared to untreated when an appropriate level of disease damage appears in untreated check leaf segments (6 to 8 days after application).

The values that follow come from patent US20260200905A1, “MICROBIOCIDAL TETRAHYDROISOQUINOLINE DERIVATIVES” (SYNGENTA CROP PROTECTION AG, priority 2022, published 2026).

A value given as a limit tells only on which side of the number the result lay.

As for `O=C(c1cc(-c2ccc(F)cc2F)on1)N1Cc2c(F)cccc2C(c2cccnc2)C1` (centres unmarked) [Compound P-1, [5-(2,4-difluorophenyl)isoxazol-3-yl]-[8-fluoro-4-(3-pyridyl)-3,4-dihydro-1H-isoquinolin-2-yl]methanone], the inhibition of growth at 20 ppm in experiment [1], in experiment [2] and in experiment [3] was ≥ 80% each time. The “control of Pyrenophora teres” value with Pyrenophora teres was “at least 80%”.

In the case of `O=C(c1cc(-c2ccc(F)cc2F)on1)N1Cc2ccccc2C(c2ccncc2)C1` (centres unmarked) [Compound P-2, [5-(2,4-difluorophenyl)isoxazol-3-yl]-4-[4-(4-pyridyl)-3,4-dihydro-1H-isoquinolin-2-yl]methanone], the inhibition of growth at 20 ppm in experiment [1] and in experiment [3] was ≥ 80% each time. For the same compound, the “control of Pythium ultimum” value in the experiment on Pythium ultimum is “at least 80%”. Also, in experiment [4], the “control of Thanatephorus cucumeris” value is “at least 80%”.

As to `Cc1ccc(C2CN(C(=O)c3cc(-c4ccc(F)cc4F)on3)Cc3ccccc32)cn1` (centres unmarked) [Compound P-3, [5-(2,4-difluorophenyl)isoxazol-3-yl]-[4-(6-methyl-3-pyridyl)-3,4-dihydro-1H-isoquinolin-2-yl]methanone], the inhibition of growth at 20 ppm in experiment [1], in experiment [2] and in experiment [3] was ≥ 80% in each case.

Regarding `O=C(c1cc(-c2ccc(F)cc2F)on1)N1Cc2ccccc2C(c2cncnc2)C1` (centres unmarked) [Compound P-4, [5-(2,4-difluorophenyl)isoxazol-3-yl]-(4-pyrimidin-5-yl-3,4-dihydro-1H-isoquinolin-2-yl)methanone], the inhibition of growth at 20 ppm in experiment [1], in experiment [2] and in experiment [3] was ≥ 80% in each case.

In the case of `O=C(c1cc(-c2ccc(F)cc2F)on1)N1Cc2ccccc2C(c2cccnc2)C1` (centres unmarked) [Compound P-5, [5-(2,4-difluorophenyl)isoxazol-3-yl]-[4-(3-pyridyl)-3,4-dihydro-1H-isoquinolin-2-yl]methanone], the inhibition of growth at 20 ppm in experiment [1], in experiment [2] and in experiment [3] was ≥ 80% each time.

Regarding `O=C(c1cc(-c2ccccc2)on1)N1Cc2ccccc2C(c2cccnc2)C1` (centres unmarked) [Compound P-6, (5-phenylisoxazol-3-yl)-[4-(3-pyridyl)-3,4-dihydro-1H-isoquinolin-2-yl]methanone], the inhibition of growth at 20 ppm in experiment [1], in experiment [2] and in experiment [3] was ≥ 80% in each case.

Turning to `Cn1nc(C2CN(C(=O)c3cc(-c4ccc(F)cc4F)on3)Cc3ccccc32)cc1Cl` (centres unmarked) [Compound P-7, [4-(5-chloro-1-methyl-pyrazol-3-yl)-3,4-dihydro-1H-isoquinolin-2-yl]-[5-(2,4-difluorophenyl)isoxazol-3-yl]methanone], in experiment [5], the “control of Phaeosphaeria nodorum” value is recorded as “at least 80%”. Further, the inhibition of growth at 20 ppm in experiment [1], in experiment [2] and in experiment [3] was ≥ 80% throughout.

Take `O=C(c1cc(-c2ccc(F)cc2F)on1)N1Cc2ccccc2C(c2cnccn2)C1` (centres unmarked) [Compound P-8, [5-(2,4-difluorophenyl)isoxazol-3-yl]-(4-pyrazin-2-yl-3,4-dihydro-1H-isoquinolin-2-yl]methanone]: the inhibition of growth at 20 ppm in experiment [1], in experiment [2] and in experiment [3] was ≥ 80% throughout.

For the compound `O=C(c1cc(-c2ccc(F)cc2F)on1)N1Cc2cccc(F)c2C(c2cccnc2)C1` (centres unmarked) [Compound P-9, [5-(2,4-difluorophenyl)isoxazol-3-yl]-[5-fluoro-4-(3-pyridyl)-3,4-dihydro-1H-isoquinolin-2-yl]methanone], the inhibition of growth at 20 ppm in experiment [1], in experiment [2] and in experiment [3] was ≥ 80% each time.

As to `Cn1c(Cl)nc(C2CN(C(=O)c3cc(-c4ccc(F)cc4F)on3)Cc3ccccc32)c1Cl` (centres unmarked) [Compound P-10, [4-(2,5-dichloro-1-methyl-imidazol-4-yl)-3,4-dihydro-1H-isoquinolin-2-yl]-[5-(2,4-difluorophenyl)isoxazol-3-yl]methanone], the inhibition of growth at 20 ppm in experiment [2] and in experiment [3] was ≥ 80% each time.

Turning to `Cc1c(C2CN(C(=O)c3nnc(-c4ccc(F)cc4F)s3)Cc3ccccc32)nc(Cl)n1C` (centres unmarked) [Compound P-11, [4-(2-chloro-1,5-dimethyl-imidazol-4-yl)-3,4-dihydro-1H-isoquinolin-2-yl]-[5-(2,4-difluorophenyl)-1,3,4-thiadiazol-2-yl]methanone], the inhibition of growth at 20 ppm in experiment [2] and in experiment [3] was ≥ 80% in each case.

Regarding `O=C(c1cc(-c2ccc(F)cc2F)on1)N1Cc2ccccc2C(c2ccc(F)nc2)C1` (centres unmarked) [Compound P-12, [5-(2,4-difluorophenyl)isoxazol-3-yl]-[4-(6-fluoro-3-pyridyl)-3,4-dihydro-1H-isoquinolin-2-yl]methanone], the inhibition of growth at 20 ppm in experiment [1] and in experiment [3] was ≥ 80% each time.

Consider `Cc1ncccc1C1CN(C(=O)c2cc(-c3ccc(F)cc3F)on2)Cc2ccccc21` (centres unmarked) [Compound P-13, [5-(2,4-difluorophenyl)isoxazol-3-yl]-[4-(2-methyl-3-pyridyl)-3,4-dihydro-1H-isoquinolin-2-yl]methanone], for which the inhibition of growth at 20 ppm in experiment [2] and in experiment [3] was ≥ 80% throughout.

As for `Cc1ccncc1C1CN(C(=O)c2cc(-c3ccc(F)cc3F)on2)Cc2ccccc21` (centres unmarked) [Compound P-14, [5-(2,4-difluorophenyl)isoxazol-3-yl]-[4-(4-methyl-3-pyridyl)-3,4-dihydro-1H-isoquinolin-2-yl]methanone], the inhibition of growth at 20 ppm in experiment [2] and in experiment [3] was ≥ 80% each time.

For `O=C(c1cc(-c2ccc(F)cc2F)on1)N1Cc2ccccc2C(c2ccccn2)C1` (centres unmarked) [Compound P-15, [5-(2,4-difluorophenyl)isoxazol-3-yl]-[4-(2-pyridyl)-3,4-dihydro-1H-isoquinolin-2-yl]methanone], the inhibition of growth at 20 ppm in experiment [1] and in experiment [3] was ≥ 80% each time.

With `Cc1c(C2CN(C(=O)c3cc(-c4ccc(F)cc4F)no3)Cc3ccccc32)cc(C#N)n1C` (centres unmarked) [Compound P-19, 4-[2-[3-(2,4-difluorophenyl)isoxazole-5-carbonyl]-3,4-dihydro-1H-isoquinolin-4-yl]-1,5-dimethyl-pyrrole-2-carbonitrile], the “control of Puccinia recondita f sp. tritici” value in experiment [6] is “at least 80%”. The inhibition of growth at 20 ppm in experiment [3] is ≥ 80%.
